The results in this text go back to PMC10322960 (European Journal of Drug Metabolism and Pharmacokinetics, 2023).

For data set [1], the target named is CYP2C9 (Homo sapiens, UniProt P11712). Nature of the data set: In vitro P450 inhibition, recombinant CYP2C9. Type of data set: in vitro ADME.
In data set [2] the target is MDR1 (Homo sapiens, UniProt P08183). The data set is described as follows: MDR1 vesicular transport inhibition assay. It counts as in vitro ADME.
The target in data set [3] is T1, OAT3 (Homo sapiens, UniProt Q8TCC7).
T1 sequence (Q8TCC7 1-542): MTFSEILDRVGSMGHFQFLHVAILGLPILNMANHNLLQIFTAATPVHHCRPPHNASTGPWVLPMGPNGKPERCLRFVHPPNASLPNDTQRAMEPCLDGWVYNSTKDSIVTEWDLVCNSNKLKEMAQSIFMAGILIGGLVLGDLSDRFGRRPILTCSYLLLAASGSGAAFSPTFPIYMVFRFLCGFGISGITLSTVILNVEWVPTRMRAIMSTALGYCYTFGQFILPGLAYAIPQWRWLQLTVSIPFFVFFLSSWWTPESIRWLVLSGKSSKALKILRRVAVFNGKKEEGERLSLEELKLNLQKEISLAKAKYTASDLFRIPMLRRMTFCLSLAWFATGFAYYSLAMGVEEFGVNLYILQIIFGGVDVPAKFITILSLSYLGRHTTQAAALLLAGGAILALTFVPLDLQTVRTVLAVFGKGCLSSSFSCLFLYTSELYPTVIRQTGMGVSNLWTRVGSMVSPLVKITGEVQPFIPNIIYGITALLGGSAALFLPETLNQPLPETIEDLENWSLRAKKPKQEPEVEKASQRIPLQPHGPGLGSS
The data set is described as follows: OAT3 uptake inhibition assay. It counts as in vitro ADME. Particulars: 0.63–40 μM.

The target of data set [4] is T2, BCRP (Homo sapiens, UniProt Q9UNQ0).
T2 sequence (Q9UNQ0 1-655): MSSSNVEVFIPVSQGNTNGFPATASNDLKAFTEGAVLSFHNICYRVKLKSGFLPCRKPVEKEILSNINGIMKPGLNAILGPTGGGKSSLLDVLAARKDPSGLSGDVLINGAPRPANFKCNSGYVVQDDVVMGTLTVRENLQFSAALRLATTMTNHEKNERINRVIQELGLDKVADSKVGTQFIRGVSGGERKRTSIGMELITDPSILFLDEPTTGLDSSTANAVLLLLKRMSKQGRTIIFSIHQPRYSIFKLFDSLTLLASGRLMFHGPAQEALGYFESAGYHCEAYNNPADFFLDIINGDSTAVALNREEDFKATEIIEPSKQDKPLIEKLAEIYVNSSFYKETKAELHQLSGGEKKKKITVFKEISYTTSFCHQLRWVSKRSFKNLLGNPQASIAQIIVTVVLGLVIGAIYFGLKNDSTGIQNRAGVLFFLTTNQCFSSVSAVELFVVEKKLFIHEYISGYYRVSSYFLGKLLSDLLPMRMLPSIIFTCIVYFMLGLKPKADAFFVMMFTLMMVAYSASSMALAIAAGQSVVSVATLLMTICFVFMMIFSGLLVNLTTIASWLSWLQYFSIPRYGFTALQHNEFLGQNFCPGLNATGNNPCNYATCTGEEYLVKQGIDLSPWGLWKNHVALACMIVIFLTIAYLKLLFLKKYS
The data set is described as follows: BCRP monolayer substrate assay. It counts as in vitro ADME.

Data set [5] deals with T3, MATE1 (Homo sapiens, UniProt Q96FL8).
T3 sequence (Q96FL8 1-570): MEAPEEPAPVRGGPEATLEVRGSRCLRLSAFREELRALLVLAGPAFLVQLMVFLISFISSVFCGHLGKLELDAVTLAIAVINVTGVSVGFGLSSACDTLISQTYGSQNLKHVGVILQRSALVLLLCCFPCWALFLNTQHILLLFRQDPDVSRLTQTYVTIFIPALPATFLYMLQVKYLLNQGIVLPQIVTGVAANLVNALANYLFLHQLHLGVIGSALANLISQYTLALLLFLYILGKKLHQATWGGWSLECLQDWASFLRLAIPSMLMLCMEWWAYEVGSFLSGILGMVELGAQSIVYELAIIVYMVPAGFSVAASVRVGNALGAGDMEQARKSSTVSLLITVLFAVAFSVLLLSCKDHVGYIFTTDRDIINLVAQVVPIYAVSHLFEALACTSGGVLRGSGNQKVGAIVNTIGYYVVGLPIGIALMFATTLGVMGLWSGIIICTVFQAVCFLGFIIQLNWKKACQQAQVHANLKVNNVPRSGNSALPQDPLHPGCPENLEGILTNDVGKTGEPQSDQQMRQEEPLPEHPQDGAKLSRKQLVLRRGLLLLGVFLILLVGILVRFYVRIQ
The data set is described as follows: MATE1 uptake substrate assay. Type of data set: in vitro ADME.

The target in data set [6] is MATE2-K (Homo sapiens, UniProt Q86VL8). Nature of the data set: MATE2-K uptake substrate assay. Type of data set: in vitro ADME.
Data set [7] addresses OCT1 (Homo sapiens, UniProt O15245). The data set is described as follows: OCT1 uptake substrate assay. It counts as in vitro ADME.
Data set [8] deals with T4, OCT2 (Homo sapiens, UniProt O15244).
T4 sequence (O15244 1-555): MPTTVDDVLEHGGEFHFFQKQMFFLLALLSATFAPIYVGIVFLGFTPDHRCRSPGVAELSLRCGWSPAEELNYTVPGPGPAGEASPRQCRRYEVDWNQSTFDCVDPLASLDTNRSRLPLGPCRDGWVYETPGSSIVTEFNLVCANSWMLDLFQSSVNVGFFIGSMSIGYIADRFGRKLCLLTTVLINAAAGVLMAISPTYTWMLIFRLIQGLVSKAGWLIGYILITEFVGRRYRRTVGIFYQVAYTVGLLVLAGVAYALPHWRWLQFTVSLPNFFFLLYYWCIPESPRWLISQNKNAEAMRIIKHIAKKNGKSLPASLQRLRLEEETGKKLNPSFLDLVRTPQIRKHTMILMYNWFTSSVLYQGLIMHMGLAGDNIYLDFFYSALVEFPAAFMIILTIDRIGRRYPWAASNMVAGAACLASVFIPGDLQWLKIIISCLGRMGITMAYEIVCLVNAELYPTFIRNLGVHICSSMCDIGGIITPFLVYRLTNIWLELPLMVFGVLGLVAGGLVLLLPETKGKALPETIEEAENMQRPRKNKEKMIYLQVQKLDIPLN
The data set is described as follows: OCT2 uptake substrate assay. Type of data set: in vitro ADME.

The nature of data set [9]: Phase 1 clinical drug–drug interaction study, safety assessment. It counts as in vivo, human.
Where [10] appears, read: transporter-expressing vs control cells, 0.04–40 µm.
The mark [11] stands for this setting: Cohort 2, 12 subjects, mild in severity.
The mark [12] stands for this setting: rifampin cohort, 12 participants.

The structures appear in SMILES notation. “Also recorded” adds a separate entry of the source. Where only a bound is given, the exact number is not on record here.

Chain of MATE2-K (Q86VL8 1-566 isoform Q86VL8-3): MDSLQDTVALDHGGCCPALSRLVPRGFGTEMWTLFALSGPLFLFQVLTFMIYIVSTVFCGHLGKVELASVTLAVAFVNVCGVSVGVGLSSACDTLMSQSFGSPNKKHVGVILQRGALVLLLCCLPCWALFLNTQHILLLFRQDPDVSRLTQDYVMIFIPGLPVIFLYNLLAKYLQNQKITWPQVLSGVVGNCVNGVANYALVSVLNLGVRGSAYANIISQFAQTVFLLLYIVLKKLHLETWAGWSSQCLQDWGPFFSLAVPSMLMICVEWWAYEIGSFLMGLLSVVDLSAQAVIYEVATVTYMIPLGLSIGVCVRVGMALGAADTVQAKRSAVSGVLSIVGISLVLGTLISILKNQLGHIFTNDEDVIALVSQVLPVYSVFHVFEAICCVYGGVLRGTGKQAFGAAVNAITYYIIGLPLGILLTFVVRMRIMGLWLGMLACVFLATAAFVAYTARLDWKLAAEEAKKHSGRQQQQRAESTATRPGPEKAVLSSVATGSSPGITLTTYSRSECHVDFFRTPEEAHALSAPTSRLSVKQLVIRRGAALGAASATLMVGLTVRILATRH
Chain of CYP2C9 (P11712 whole entry): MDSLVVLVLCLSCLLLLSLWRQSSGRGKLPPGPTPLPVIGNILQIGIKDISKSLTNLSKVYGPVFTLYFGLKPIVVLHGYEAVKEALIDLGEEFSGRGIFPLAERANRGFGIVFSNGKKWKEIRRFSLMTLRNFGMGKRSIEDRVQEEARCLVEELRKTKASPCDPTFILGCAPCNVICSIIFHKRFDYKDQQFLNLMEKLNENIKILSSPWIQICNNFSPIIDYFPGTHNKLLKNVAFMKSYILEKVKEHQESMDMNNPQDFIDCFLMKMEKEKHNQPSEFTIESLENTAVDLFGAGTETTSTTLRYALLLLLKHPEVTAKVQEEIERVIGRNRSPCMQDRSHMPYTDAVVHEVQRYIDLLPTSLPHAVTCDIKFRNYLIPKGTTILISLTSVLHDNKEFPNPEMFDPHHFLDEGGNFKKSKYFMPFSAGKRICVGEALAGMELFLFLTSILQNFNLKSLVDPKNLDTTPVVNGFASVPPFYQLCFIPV
Chain of OCT1 (O15245 whole entry): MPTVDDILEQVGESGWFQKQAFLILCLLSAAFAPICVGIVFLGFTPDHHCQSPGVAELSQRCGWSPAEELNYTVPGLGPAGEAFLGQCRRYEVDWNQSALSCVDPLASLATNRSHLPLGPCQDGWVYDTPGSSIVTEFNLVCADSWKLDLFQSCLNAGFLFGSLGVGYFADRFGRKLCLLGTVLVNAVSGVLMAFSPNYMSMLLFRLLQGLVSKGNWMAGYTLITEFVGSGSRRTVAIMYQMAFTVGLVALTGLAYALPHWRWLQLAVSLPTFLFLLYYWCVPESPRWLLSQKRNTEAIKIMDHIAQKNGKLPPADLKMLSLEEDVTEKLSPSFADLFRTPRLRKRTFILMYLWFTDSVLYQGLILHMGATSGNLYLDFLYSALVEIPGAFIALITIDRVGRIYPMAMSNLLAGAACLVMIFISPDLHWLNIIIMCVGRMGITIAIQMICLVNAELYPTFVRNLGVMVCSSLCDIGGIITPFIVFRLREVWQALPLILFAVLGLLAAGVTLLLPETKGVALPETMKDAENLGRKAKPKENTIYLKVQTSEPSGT
Chain of MDR1 (P08183 whole entry): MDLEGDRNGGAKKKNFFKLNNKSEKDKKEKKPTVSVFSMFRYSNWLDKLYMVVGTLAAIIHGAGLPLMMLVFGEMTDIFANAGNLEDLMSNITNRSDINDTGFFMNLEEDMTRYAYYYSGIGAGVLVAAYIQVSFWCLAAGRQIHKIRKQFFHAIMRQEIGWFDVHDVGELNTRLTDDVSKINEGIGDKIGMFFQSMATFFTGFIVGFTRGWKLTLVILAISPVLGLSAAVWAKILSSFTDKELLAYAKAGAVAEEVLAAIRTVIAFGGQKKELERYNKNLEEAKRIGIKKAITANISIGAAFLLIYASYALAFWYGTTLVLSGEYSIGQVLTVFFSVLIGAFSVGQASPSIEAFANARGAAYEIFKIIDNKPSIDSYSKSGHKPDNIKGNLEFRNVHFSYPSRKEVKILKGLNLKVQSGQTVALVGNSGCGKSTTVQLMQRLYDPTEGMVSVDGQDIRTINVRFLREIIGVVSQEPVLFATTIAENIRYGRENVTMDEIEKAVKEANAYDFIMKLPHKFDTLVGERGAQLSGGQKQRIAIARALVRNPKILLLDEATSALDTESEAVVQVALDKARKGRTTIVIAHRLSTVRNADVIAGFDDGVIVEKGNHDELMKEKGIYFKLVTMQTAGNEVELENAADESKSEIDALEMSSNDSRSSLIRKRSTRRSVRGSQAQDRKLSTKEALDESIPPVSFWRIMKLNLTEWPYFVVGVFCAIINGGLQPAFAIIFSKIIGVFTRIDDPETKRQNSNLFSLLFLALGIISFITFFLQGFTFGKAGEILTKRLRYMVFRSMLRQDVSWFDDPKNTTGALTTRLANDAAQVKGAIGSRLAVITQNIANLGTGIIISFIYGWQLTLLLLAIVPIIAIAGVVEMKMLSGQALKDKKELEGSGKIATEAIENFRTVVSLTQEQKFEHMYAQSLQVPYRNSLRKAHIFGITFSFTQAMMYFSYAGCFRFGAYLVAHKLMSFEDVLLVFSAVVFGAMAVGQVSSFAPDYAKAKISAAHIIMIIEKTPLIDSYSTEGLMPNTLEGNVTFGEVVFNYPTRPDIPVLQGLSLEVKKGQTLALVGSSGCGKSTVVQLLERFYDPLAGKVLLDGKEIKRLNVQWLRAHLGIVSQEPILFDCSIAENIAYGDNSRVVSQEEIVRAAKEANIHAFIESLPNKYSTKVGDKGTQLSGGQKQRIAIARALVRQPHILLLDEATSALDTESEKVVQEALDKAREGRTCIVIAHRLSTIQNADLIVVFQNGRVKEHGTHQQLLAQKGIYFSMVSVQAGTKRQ

Regarding `N#Cc1ccc(N2N=C3c4ccc(C(=O)N5CCC(O)CC5)nc4CC[C@@H]3[C@@H]2C2CCCC2)cc1Cl` [Ocedurenone, ocedurenone], the “percent remaining activity of CYP2C9” value in data set [1] (ocedurenone at 200 μM) is on record as 70.2%. Also, the IC50 (commonly the concentration that inhibits the measured activity by half) in [1] (read-out: IC50 CYP2C9, recombinant CYP) is more than 200000 nM. For the same compound, the “inhibition category CYP2C9” value in data set [1] (recombinant enzyme) was “little or no inhibition”. In data set [2] (first vesicular transport run, 40 µM), the “inhibition of MDR1 at 40 µM” value was determined as 99%. Besides, the half-inhibitory concentration (IC50) in data set [2] (read-out: Inhibition results (IC50), MDR1 VT, probe NMQ (1 µm)) is 2500 nM. Moreover, the “maximum inhibition of MDR1-mediated transport” value in data set [2] (repeat with 7 concentrations) turned out to be 100%. Besides, the “interaction with human OAT3 transporter (inhibition)” value in data set [3] is on record as “No interaction”. The “Substrate, BCRP ML” value in data set [4] is “likely a substrate”. The “Substrate, MATE1 UPT” value in data set [5] was “not likely to be a substrate”. Moreover, the “Maximum fold accumulation, MATE1 UPT” value in [5] (setting [10]) was found to be 1.0. Besides, the “Substrate, MATE2-K UPT” value in [6] is reported as “not likely to be a substrate”. Further, the “Maximum fold accumulation, MATE2-K UPT” value in [6] (setting [10]) is given as less than 2. In addition, the “Substrate, OCT1 UPT” value in data set [7] was “not likely to be a substrate”. For the same compound, the “Maximum fold accumulation, OCT1 UPT” value in [7] (setting [10]) turned out to be 1.1. In data set [8], the “Substrate, OCT2 UPT” value is given as “not likely to be a substrate”. For the same compound, in data set [8] (setting [10]), the “Maximum fold accumulation, OCT2 UPT” value came out at 1.0. Besides, the “treatment-emergent AEs considered related to ocedurenone” value in [9] (Cohort 1 (itraconazole cohort), 12 subjects) was “No treatment-emergent AEs; also recorded: no treatment-emergent adverse events”. In data set [9] (setting [11]), the “number of treatment-emergent AEs considered related to the drug” value is 5 and the “subjects with treatment-emergent AEs considered related to the drug” value came to 25.0%. In data set [9] (setting [12]), the “participants with headache (TEAE related to ocedurenone)” value was found to be 16.7%, the “participants with hyperhidrosis (TEAE related to ocedurenone)” value is recorded as 8.3%, the “participants with nausea (TEAE related to ocedurenone)” value came out at 8.3% and the “participants with nervousness (TEAE related to ocedurenone)” value was determined as 8.3%. Further, the tolerability result in data set [9] (single 0.5-mg dose alone and with itraconazole or rifampin, healthy participants) was “safe and well-tolerated”.
